In patent US20040253193A1, “Oral rinse for treatment for prevention of bacterial and fungal infection” (priority 2001, published 2004):

Assays:
[1] = tested on: anaerobic gram-negative microorganisms; conditions: short-term systemic use, administered orally in humans; cited from earlier work
[2] = type: physicochemical
Experimental: Metronidazole (Apo-Metronidazole, Apotex Research Inc.) was prepared by grinding tablets into a powder form and water is added to make a paste. The paste was added to a suitable quantity of nystatin, which was obtained as an aqueous solution from Alimed or PMS PharmaScience (Nilstat™). […] The mouth rinse has a slightly sticky consistency that provides effective contact with the tissues.

- solubility in water [2]: does not dissolve in water
Structure (SMILES): Cc1ncc([N+](=O)[O-])n1CCO [metronidazole]
- effect on anaerobic gram-negative microorganisms and periodontal health [1]: sustained reduction of anaerobic gram-negative microorganisms
